Legend:
[1] = target: Kelch domain of human KEAP1 (321-624 aa) (Homo sapiens (Human), UniProt Q14145); test: KEAP1 KELCH ThermoFluor binding assay; details: KEAP Kelch […], 1,8-ANS, pH 7.0, average of results obtained, read-out: Tf Kd;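 also: Ligand-induced melting temperature shift of E. coli-expressed KEAP1 Kelch protein, Kd estimated from concentration-response curves of ΔTm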
[2] = tested on: Glo-Response ARE-luc2P HEK293 cell line; test: ARE luciferase reporter cell-based assay; details: Homo sapiens, HEK293, 24 h, average of results obtained;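 also: luciferase signal tracks Nrf2 activation of the ARE once compounds disrupt KEAP1-Nrf2 binding, read with One-Glo reagent, DMSO serving as low control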

Sequence of Kelch domain of human KEAP1 (321-624 aa) (Q14145 321-624): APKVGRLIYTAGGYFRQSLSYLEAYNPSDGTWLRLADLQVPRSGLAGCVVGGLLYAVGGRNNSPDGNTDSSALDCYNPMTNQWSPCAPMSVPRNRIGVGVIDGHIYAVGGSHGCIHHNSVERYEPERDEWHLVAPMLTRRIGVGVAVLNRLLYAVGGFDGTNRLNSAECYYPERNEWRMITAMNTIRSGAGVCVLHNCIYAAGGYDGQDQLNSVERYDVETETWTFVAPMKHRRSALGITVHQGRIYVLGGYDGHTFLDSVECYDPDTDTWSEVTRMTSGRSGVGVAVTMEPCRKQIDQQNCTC

SMILES	Kd [1]	EC50 [2]
Cc1ccc([C@@H](c2ccn3c(C(F)(F)F)nnc3c2C)C(C)(C)C(=O)O)cc1CN1CC2(CC2)Oc2nc(OCCN3CCOCC3)c(C)cc2S1(=O)=O (single isomer, unassigned) [Example 597, (*S)-2,2-dimethyl-3-(4-methyl-3-((8′-methyl-7′-(2-morpholinoethoxy)-1′,1′-dioxidospiro[cyclopropane-1,4′-pyrido[2,3-b][1,4,5]oxathiazepin]-2′,(3′H)-yl)methyl)phenyl)-3-(8-methyl-3-(trifluoromethyl)-[1,2,4]triazolo[4,3-a]pyridine-7-yl)propanoic Acid]	< 1 nM	2.79 nM
Cc1ccc([C@@H](c2ccn3c(C(F)(F)F)nnc3c2C)C(C)(C)C(=O)O)cc1CN1CC2(CC2)Oc2nc(OCCN3CCCC3)ccc2S1(=O)=O (single isomer, unassigned) [Example 598, (*S)-3-(3-((1′,1′-dioxido-7′-(2-(pyrrolidine-1-yl)ethoxy)spiro[cyclopropane-1,4′-pyrido[2,3-b][1,4,5]oxathiazepin]-2′(3′H)-yl)methyl)-4-methylphenyl)-2,2-dimethyl-3-(8-methyl-3-(trifluoromethyl)-[1,2,4]triazolo[4,3-a]pyridine-7-yl)propanoic Acid]	< 1 nM	8.85 nM
Cc1ccc([C@@H](c2ccn3c(C(F)(F)F)nnc3c2C)C(C)(C)C(=O)O)cc1CN1CC2(CCOCC2)Oc2nc(CCC(N)=O)ccc2S1(=O)=O (single isomer, unassigned) [Example 599, (*S)-3-(3-((7′-(3-amino-3-oxopropyl)-1′,1′-dioxido-2,3,5,6-tetrahydrospiro[pyran-4,4′-pyrido[2,3-b][1,4,5]oxathiazepin]-2′(3′H)-yl)methyl)-4-methylphenyl)-2,2-dimethyl-3-(8-methyl-3-(trifluoromethyl)-[1,2,4]triazolo[4,3-a]pyridine-7-yl)propanoic Acid]	< 1 nM	246 nM
Cc1ccc([C@@H](c2ccn3c(C(F)(F)F)nnc3c2C)C(C)(C)C(=O)O)cc1CN1CC2(CCOCC2)Oc2nc(O[C@H](C)CN3CCCCC3)c(C)cc2S1(=O)=O (single isomer, unassigned) [Example 601, (*S)-2,2-Dimethyl-3-(4-methyl-3-((8′-methyl-1′,1′-dioxido-7′-(((*R)-1-(piperidin-1-yl)propan-2-yl)oxy)-2,3,5,6-tetrahydrospiro[pyran-4,4′-pyrido[2,3-b][1,4,5]oxathiazepin]-2′,(3′H)-yl)methyl)phenyl)-3-(8-methyl-3-(trifluoromethyl)-[1,2,4]triazolo[4,3-a]pyridine-7-yl)propanoic Acid]	< 1 nM	4.79 nM

The next lines start with results.

Kd [1]	SMILES	EC50 [2]
< 1 nM	Cc1ccc([C@@H](c2ccn3c(C(F)(F)F)nnc3c2C)C(C)(C)C(=O)O)cc1CN1CC2(CCOCC2)Oc2nc(O[C@@H](C)CN3CCCCC3)c(C)cc2S1(=O)=O (single isomer, unassigned) [Example 602, (*S)-2,2-Dimethyl-3-(4-methyl-3-((8′-methyl-1′,1′-dioxido-7′-(((*S)-1-(piperidin-1-yl)propan-2-yl)oxy)-2,3,5,6-tetrahydrospiro[pyran-4,4′-pyrido[2,3-b][1,4,5]oxathiazepin]-2′,(3′H)-yl)methyl)phenyl)-3-(8-methyl-3-(trifluoromethyl)-[1,2,4]triazolo[4,3-a]pyridine-7-yl)propanoic Acid]	2.72 nM
< 1 nM	Cc1ccc([C@H](c2ccn3c(C(F)(F)F)nnc3c2C)C(C)(C)C(=O)O)cc1CN1CC2(CCOCC2)Oc2nc(N[C@H](C)CN3CCCCC3)c(C)cc2S1(=O)=O (single isomer, unassigned) [Example 603, (*R)-2,2-Dimethyl-3-(4-methyl-3-((8′-methyl-1′,1′-dioxido-7′-(((*R)-1-(piperidin-1-yl)propan-2-yl)amino)-2,3,5,6-tetrahydrospiro[pyran-4,4′-pyrido[2,3-b][1,4,5]oxathiazepin]-2′(3′H)-yl)methyl)phenyl)-3-(8-methyl-3-(trifluoromethyl)-[1,2,4]triazolo[4,3-a]pyridine-7-yl)propanoic Acid]	55 nM

From patent US10947252B2, “Inhibitors of KEAP1-Nrf2 protein-protein interaction” (Janssen Pharmaceutica NV, priority 2018, dated 2021)
